Literature values in PMC7898221 (Drug Design, Development and Therapy, 2021).

Legend:
[1] = system: CYP3A4

Terminal t1/2 [h]	Tmax (after dosing) [h]	Structure (SMILES)	Time to maximum plasma concentration (Tmax) (after dosing) [min]	Fraction metabolized by CYP3A4 into LC15-0636 [1]
12.3 ± 5.8	1.0 to 5.0	CC(C)c1nc(N(C)S(C)(=O)=O)nc(-c2ccc(F)cc2)c1/C=C/[C@@H](O)C[C@@H](O)CC(=O)O [Rosuvastatin]		
		N[C@@H](CC(=O)N1CCc2c(nc(C(F)(F)F)nc2C(F)(F)F)C1)CN1CC(F)(F)CCC1=O [Gemigliptin]	30 to 180	~ 10%
